Results taken from patent US20210045385A1, “PYRIDAZINONE-SUBSTITUTED KETOXIMES AS HERBICIDES” (FMC Corporation, priority 2018, published 2021).

How the values were obtained:
Format in all cases: in vivo
[1] = system: Italian ryegrass (Lolium mutiflorum); assay: Test C preemergence, visual plant response rating; conditions: Test C, 0 is no effect, 100 is complete control
Summary of the method: (§1)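 Visual injury on a 0 (no effect) to 100 (complete control) scale versus untreated controls, scored approximately 10 d after treatment under greenhouse conditions. Treatments used surfactant-containing non-phytotoxic solvent formulations, sprayed onto loam–sand soil preemergence or onto one- to two-leaf plants 2–10 cm tall postemergence.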

kochia (Bassia scoparia) [2] = assay: Test C preemergence, visual plant response rating; conditions: Test C, 0 is no effect, 100 is complete control
Summary of the method: as §1

[3] = system: pigweed (Amaranthus retroflexus); assay: Test C preemergence, visual plant response rating; conditions: Test C, 0 is no effect, 100 is complete control
Summary of the method: as §1

[4] = system: ragweed (common ragweed, Ambrosia artemisiifolia); assay: Test C preemergence, visual plant response rating; conditions: Test C, 0 is no effect, 100 is complete control
Summary of the method: as §1

[5] = system: foxtail, giant (giant foxtail, Setaria faberi); assay: Test C preemergence, visual plant response rating; conditions: Test C, 0 is no effect, 100 is complete control
Summary of the method: as §1

[6] = system: barnyardgrass (Echinochloa crus-galli); assay: Test C preemergence, visual plant response rating; conditions: Test C, 0 is no effect, 100 is complete control
Summary of the method: as §1

rice (Oryza sativa) = assay: Test D flooded paddy test, visual plant response rating; conditions: 250 g ai/ha, scale 0 to 100 (0 no effect, 100 complete control), 13 to 15 d
Summary of the method: (§2)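 Rating is visual, on a 0 (no effect) to 100 (complete control) scale versus controls, taken 13 to 15 d after treatment in a greenhouse. Treatment went into paddy water kept 3 cm above the soil surface, with plants at the 2-leaf stage.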

[7] = system: sedge umbrella (small-flower umbrella sedge, Cyperus difformis); assay: as above; conditions: 250 g ai/ha, scale 0 to 100 (0 no effect, 100 complete control), 13 to 15 d
Summary of the method: as §2

[8] = system: duck salad (Heteranthera limosa); assay: as above; conditions: 250 g ai/ha, scale 0 to 100 (0 no effect, 100 complete control), 13 to 15 d
Summary of the method: as §2

[9] = system: barnyardgrass (Echinochloa crus-galli); assay: as above; conditions: 250 g ai/ha, scale 0 to 100 (0 no effect, 100 complete control), 13 to 15 d
Summary of the method: as §2

corn (Zea mays) = assay: Test C postemergence, visual plant response rating
Summary of the method: as §1

[10] = system: Italian ryegrass (Lolium mutiflorum); assay: Test C postemergence, visual plant response rating
Summary of the method: as §1

kochia (Bassia scoparia) [11] = assay: Test C postemergence, visual plant response rating
Summary of the method: as §1

[12] = system: pigweed (Amaranthus retroflexus); assay: Test C postemergence, visual plant response rating
Summary of the method: as §1

[13] = system: blackgrass (Alopecurus myosuroides); assay: Test C postemergence, visual plant response rating
Summary of the method: as §1

[14] = system: galium (catchweed bedstraw, Galium aparine); assay: Test C postemergence, visual plant response rating
Summary of the method: as §1

[15] = system: ragweed (common ragweed, Ambrosia artemisiifolia); assay: Test C postemergence, visual plant response rating
Summary of the method: as §1

[16] = system: foxtail, giant (giant foxtail, Setaria faberi); assay: Test C postemergence, visual plant response rating
Summary of the method: as §1

[17] = system: barnyardgrass (Echinochloa crus-galli); assay: Test C postemergence, visual plant response rating
Summary of the method: as §1

[18] = system: wheat (Triticum aestivum); assay: Test C postemergence, visual plant response rating
Summary of the method: as §1

[19] = Test C, postemergence, 125 g ai/ha

SMILES | Ryegrass, Italian plant response rating (0 to 100 scale) ([1]; 31 g ai/ha) | Ryegrass, Italian plant response rating (0 to 100 scale) ([1]; 125 g ai/ha) | Kochia plant response rating (0 to 100 scale) (kochia (Bassia scoparia) [2]; 31 g ai/ha) | Kochia plant response rating (0 to 100 scale) (kochia (Bassia scoparia) [2]; 125 g ai/ha) | Pigweed plant response rating (0 to 100 scale) ([3]; 31 g ai/ha) | Pigweed plant response rating (0 to 100 scale) ([3]; 125 g ai/ha) | Ragweed plant response rating (0 to 100 scale) ([4]; 31 g ai/ha) | Ragweed plant response rating (0 to 100 scale) ([4]; 125 g ai/ha) | Foxtail, Giant plant response rating (0 to 100 scale) ([5]; 31 g ai/ha) | Foxtail, Giant plant response rating (0 to 100 scale) ([5]; 125 g ai/ha) | Barnyardgrass plant response rating (0 to 100 scale) ([6]; 31 g ai/ha) | Barnyardgrass plant response rating (0 to 100 scale) ([6]; 125 g ai/ha) | Plant response rating, Rice (Flood) (rice (Oryza sativa)) | Plant response rating, Sedge, Umbrella (Flood) [7] | Plant response rating, Ducksalad (Flood) [8] | Plant response rating, Barnyardgrass (Flood) [9] | Corn plant response rating (0 to 100 scale) (corn (Zea mays); Postemergence, 31 g ai/ha) | Corn plant response rating (0 to 100 scale) (corn (Zea mays); [19]) | Ryegrass, Italian plant response rating (0 to 100 scale) ([10]; Postemergence, 31 g ai/ha) | Ryegrass, Italian plant response rating (0 to 100 scale) [10, 19] | other results
CO/N=C(/c1cc(Cl)c(F)c(Cl)c1)c1c(O)c(C)nn(C)c1=O [Compound 289] | 0 | 30 | 0 | 0 | 0 | 40 | 0 | 30 | 0 | 10 | 0 | 0 | 0 | 0 | 0 | 0 | 0 | 0 | 0 | 60 | Kochia plant response rating (0 to 100 scale) (kochia (Bassia scoparia) [11]; Postemergence, 31 g ai/ha): 20; Kochia plant response rating (0 to 100 scale) (kochia (Bassia scoparia) [11]; [19]): 40; Pigweed plant response rating (0 to 100 scale) ([12]; Postemergence, 31 g ai/ha): 0; Pigweed plant response rating (0 to 100 scale) [12, 19]: 0; Blackgrass plant response rating (0 to 100 scale) ([13]; Postemergence, 31 g ai/ha): 0; Blackgrass plant response rating (0 to 100 scale) [13, 19]: 0; Galium plant response rating (0 to 100 scale) ([14]; Postemergence, 31 g ai/ha): 70; Galium plant response rating (0 to 100 scale) [14, 19]: 100; Ragweed plant response rating (0 to 100 scale) ([15]; Postemergence, 31 g ai/ha): 40; Ragweed plant response rating (0 to 100 scale) [15, 19]: 90; Foxtail, Giant plant response rating (0 to 100 scale) ([16]; Postemergence, 31 g ai/ha): 0; Foxtail, Giant plant response rating (0 to 100 scale) [16, 19]: 0; Barnyardgrass plant response rating (0 to 100 scale) ([17]; Postemergence, 31 g ai/ha): 0; Barnyardgrass plant response rating (0 to 100 scale) [17, 19]: 10; Wheat plant response rating (0 to 100 scale) ([18]; Postemergence, 31 g ai/ha): 0; Wheat plant response rating (0 to 100 scale) [18, 19]: 0
C#CCO/N=C(/c1cc(Cl)cc(Br)c1)c1c(O)c(C)nn(C)c1=O [Compound 291] | 10 | 100 | 0 | 90 | 10 | 80 | 60 | 100 | 50 | 100 | 0 | 100 | 0 | 45 | 25 | 0 | 20 | 30 | 90 | 100 | Kochia plant response rating (0 to 100 scale) (kochia (Bassia scoparia) [11]; Postemergence, 31 g ai/ha): 50; Kochia plant response rating (0 to 100 scale) (kochia (Bassia scoparia) [11]; [19]): 100; Pigweed plant response rating (0 to 100 scale) ([12]; Postemergence, 31 g ai/ha): 30; Pigweed plant response rating (0 to 100 scale) [12, 19]: 60; Blackgrass plant response rating (0 to 100 scale) ([13]; Postemergence, 31 g ai/ha): 0; Blackgrass plant response rating (0 to 100 scale) [13, 19]: 70; Galium plant response rating (0 to 100 scale) ([14]; Postemergence, 31 g ai/ha): 100; Galium plant response rating (0 to 100 scale) [14, 19]: 100; Ragweed plant response rating (0 to 100 scale) ([15]; Postemergence, 31 g ai/ha): 100; Ragweed plant response rating (0 to 100 scale) [15, 19]: 100; Foxtail, Giant plant response rating (0 to 100 scale) ([16]; Postemergence, 31 g ai/ha): 40; Foxtail, Giant plant response rating (0 to 100 scale) [16, 19]: 80; Barnyardgrass plant response rating (0 to 100 scale) ([17]; Postemergence, 31 g ai/ha): 20; Barnyardgrass plant response rating (0 to 100 scale) [17, 19]: 70; Wheat plant response rating (0 to 100 scale) ([18]; Postemergence, 31 g ai/ha): 30; Wheat plant response rating (0 to 100 scale) [18, 19]: 90
CCO/N=C(/c1c(O)c(Cl)nn(C)c1=O)c1ccc(F)c2ccccc12 [Compound 211] | 30 | 80 | 0 | 60 | 70 | 90 | 40 | 100 | 70 | 90 | 50 | 90 | 0 | 0 | 0 | 0 | 30 | 20 | 30 | 80 | Kochia plant response rating (0 to 100 scale) (kochia (Bassia scoparia) [11]; Postemergence, 31 g ai/ha): 50; Kochia plant response rating (0 to 100 scale) (kochia (Bassia scoparia) [11]; [19]): 90; Pigweed plant response rating (0 to 100 scale) ([12]; Postemergence, 31 g ai/ha): 70; Pigweed plant response rating (0 to 100 scale) [12, 19]: 100; Blackgrass plant response rating (0 to 100 scale) ([13]; Postemergence, 31 g ai/ha): 30; Blackgrass plant response rating (0 to 100 scale) [13, 19]: 30; Galium plant response rating (0 to 100 scale) ([14]; Postemergence, 31 g ai/ha): 100; Galium plant response rating (0 to 100 scale) [14, 19]: 100; Ragweed plant response rating (0 to 100 scale) ([15]; Postemergence, 31 g ai/ha): 80; Ragweed plant response rating (0 to 100 scale) [15, 19]: 80; Foxtail, Giant plant response rating (0 to 100 scale) ([16]; Postemergence, 31 g ai/ha): 60; Foxtail, Giant plant response rating (0 to 100 scale) [16, 19]: 90; Barnyardgrass plant response rating (0 to 100 scale) ([17]; Postemergence, 31 g ai/ha): 30; Barnyardgrass plant response rating (0 to 100 scale) [17, 19]: 70; Wheat plant response rating (0 to 100 scale) ([18]; Postemergence, 31 g ai/ha): 0; Wheat plant response rating (0 to 100 scale) [18, 19]: 40
